In patent publication US20030087395A1, “Cardiotrophin-like cytokine” (Human Genome Sciences, Inc., priority 1997, published 2003):

Tests used:
Primary cardiomyocytes = experiment: Cardiac myocyte hypertrophy, cell counts in culture; type: cell-based; conditions: counted 48 to 72 hours post-treatment; four fields in three independent cultures, averaged
Experimental: (§1) Primary cardiomyocytes, primary neuronal cultures, or other cells are plated at a low density and cultured using standard culturing techniques. […] Cultures are evaluated at a point between 48 and 72 hours post-treatment by counting the number of cells in four non-overlapping fields in three independent cultures and averaging the results.

[1] = test system: primary neuronal cultures (sympathetic neuron counts); experiment: Neuron counts in primary neuronal cultures; type: cell-based; conditions: counted 48 to 72 hours post-treatment; four fields in three independent cultures, averaged
Experimental: as §1

STATS = conditions: numbers of the STATs activated; adapted from Schidler and Darnell review; cited from earlier work
GAS or ISRE = conditions: element bound; adapted from Schidler and Darnell review; cited from earlier work

With `CNC[C@H](O)c1cccc(O)c1` [Phenylephrine, reference compound] the “No. Active Myocytes” value (Primary cardiomyocytes) was 92 and the “No. Neurons” value [1] was 28.

For “EGF: ligand of Receptor Tyrosine Kinases”, the STATS (STATS) is given as 1,3 and the “GAS or ISRE” value (GAS or ISRE) is given as “GAS (IRF1)”.

In the case of GH: Growth hormone family ligand, the STATS (STATS) is given as 5.

For GM-CSF: gp140 family ligand (myeloid), the STATS (STATS) is given as 5 and the “GAS or ISRE” value (GAS or ISRE) is given as “GAS”.

In the case of IL-5: gp140 family ligand (myeloid), the STATS (STATS) is given as 5 and the “GAS or ISRE” value (GAS or ISRE) is given as “GAS”.

In the case of IL-6: gp130 family ligand (Pleiotropic), the STATS (STATS) is listed as 1,3 and the “GAS or ISRE” value (GAS or ISRE) is listed as “GAS”.

For IL-9: g-C family ligand (lymphocytes), the STATS (STATS) is given as 5 and the “GAS or ISRE” value (GAS or ISRE) is given as “GAS”.

For IL-13: g-C family ligand (lymphocyte), the STATS (STATS) is listed as 6 and the “GAS or ISRE” value (GAS or ISRE) is listed as “GAS”.

In the case of IL-15: g-C family ligand, the STATS (STATS) is given as 5 and the “GAS or ISRE” value (GAS or ISRE) is given as “GAS”.

For PDGF, the STATS (STATS) is given as 1,3.

B1: G-CSF: gp130 family ligand (Pleiotropic) (protein, UniProt P09919 31-207, looked up)
Granulocyte …: TPLGPASSLPQSFLLKCLEQVRKIQGDGAALQEKLVSECATYKLCHPEELVLLGHSLGIPWAPLSSCPSQALQLAGCLSQLHSGLFLYQGLLQALEGISPELGPTLDTLQLDVADFATTIWQQMEELGMAPALQPTQGAMPAFASAFQRRAGGVLVASHLQSFLEVSYRVLRHLAQP
In the case of B1, the STATS (STATS) is listed as 1,3.

B2: IL-10: ligand of the IFN family in the Jaks-STATs table (protein, UniProt P22301 19-178, looked up)
Interleukin-10: SPGQGTQSENSCTHFPGNLPNMLRDLRDAFSRVKTFFQMKDQLDNLLLKESLLEDFKGYLGCQALSEMIQFYLEEVMPQAENQDPDIKAHVNSLGENLKTLRLRLRRCHRFLPCENKSKAVEQVKNAFNKLQEKGIYKAMSEFDIFINYIEAYMTMKIRN
In the case of B2, the STATS (STATS) is listed as 1,3.

B3: IL-7: g-C family ligand (lymphocytes) (protein, UniProt P13232 26-177, looked up)
Interleukin-7: DCDIEGKDGKQYESVLMVSIDQLLDSMKEIGSNCLNNEFNFFKRHICDANKEGMFLFRAARKLRQFLKMNSTGDFDLHLLKVSEGTTILLNCTGQVKGRKPAALGEAQPTKSLEENKSLKEQKKLNDLCFLKRLLQEIKTCWNKILMGTKEH
For B3, the STATS (STATS) is listed as 5 and the “GAS or ISRE” value (GAS or ISRE) is listed as “GAS”.

B4: OnM: gp130 family ligand (Pleiotropic) (protein, UniProt P13725 26-221, looked up)
Oncostatin-M: AAIGSCSKEYRVLLGQLQKQTDLMQDTSRLLDPYIRIQGLDVPKLREHCRERPGAFPSEETLRGLGRRGFLQTLNATLGCVLHRLADLEQRLPKAQDLERSGLNIEDLEKLQMARPNILGLRNNIYCMAQLLDNSDTAEPTKAGRGASQPPTPTPASDAFQRKLEGCRFLHGYHRFMHSVGRVFSKWGESPNRSRR
For B4, the STATS (STATS) is given as 1,3.

B5: CSF-1: ligand of Receptor Tyrosine Kinases (protein, UniProt P09603 33-554, looked up)
Macrophage colony-stimulating …: EEVSEYCSHMIGSGHLQSLQRLIDSQMETSCQITFEFVDQEQLKDPVCYLKKAFLLVQDIMEDTMRFRDNTPNAIAIVQLQELSLRLKSCFTKDYEEHDKACVRTFYETPLQLLEKVKNVFNETKNLLDKDWNIFSKNCNNSFAECSSQDVVTKPDCNCLYPKAIPSSDPASVSPHQPLAPSMAPVAGLTWEDSEGTEGSSLLPGEQPLHTVDPGSAKQRPPRSTCQSFEPPETPVVKDSTIGGSPQPRPSVGAFNPGMEDILDSAMGTNWVPEEASGEASEIPVPQGTELSPSRPGGGSMQTEPARPSNFLSASSPLPASAKGQQPADVTGTALPRVGPVRPTGQDWNHTPQKTDHPSALLRDPPEPGSPRISSLRPQGLSNPSTLSAQPQLSRSHSSGSVLPLGELEGRRSTRDRRSPAEPEGGPASEGAARPLPRFNSVPLTDTGHERQSEGSFSPQLQESVFHLLVPSVILVLLAVGGLLFYRWRRRSHQEPQRADSPLEQPEGSPLTQDDRQVELPV
For B5, the STATS (STATS) is listed as 1,3 and the “GAS or ISRE” value (GAS or ISRE) is listed as “GAS (not”.

B6: IL-12: gp130 family ligand (Pleiotropic) (protein, UniProt P29459 23-219; P29460 23-328, looked up)
Interleukin-12 subunit alpha: RNLPVATPDPGMFPCLHHSQNLLRAVSNMLQKARQTLEFYPCTSEEIDHEDITKDKTSTVEACLPLELTKNESCLNSRETSFITNGSCLASRKTSFMMALCLSSIYEDLKMYQVEFKTMNAKLLMDPKRQIFLDQNMLAVIDELMQALNFNSETVPQKSSLEEPDFYKTKIKLCILLHAFRIRAVTIDRVMSYLNAS
Interleukin-12 subunit beta: IWELKKDVYVVELDWYPDAPGEMVVLTCDTPEEDGITWTLDQSSEVLGSGKTLTIQVKEFGDAGQYTCHKGGEVLSHSLLLLHKKEDGIWSTDILKDQKEPKNKTFLRCEAKNYSGRFTCWWLTTISTDLTFSVKSSRGSSDPQGVTCGAATLSAERVRGDNKEYEYSVECQEDSACPAAEESLPIEVMVDAVHKLKYENYTSSFFIRDIIKPDPPKNLQLKPLKNSRQVEVSWEYPDTWSTPHSYFSLTFCVQVQGKSKREKKDRVFTDKTSATVICRKNASISVRAQDRYYSSSWSEWASVPCS
In the case of B6, the STATS (STATS) is listed as 1,3.

B7: IL-4: g-C family ligand (lymph/myeloid) (protein, UniProt P05112 25-153, looked up)
Interleukin-4: HKCDITLQEIIKTLNSLTEQKTLCTELTVTDIFAASKNTTEKETFCRAATVLRQFYSHHEKDTRCLGATAQQFHRHKQLIRFLKRLDRNLWGLAGLNSCPVKEANQSTLENFLERLKTIMREKYSKCSS
In the case of B7, the STATS (STATS) is given as 6 and the “GAS or ISRE” value (GAS or ISRE) is given as “GAS”.

B8: IL-11: gp130 family ligand (Pleiotropic) (protein, UniProt P20809 22-199, looked up)
Interleukin-11: PGPPPGPPRVSPDPRAELDSTVLLTRSLLADTRQLAAQLRDKFPADGDHNLDSLPTLAMSAGALGALQLPGVLTRLRADLLSYLRHVQWLRRAGGSSLKTLEPELGTLQARLDRLLRRLQLLMSRLALPQPPPDPPAPPLAPPSSAWGGIRAAHAILGGLHLTLDWAVRGLLLLKTRL
For B8, the STATS (STATS) is listed as 1,3.

B9: CNTF: gp130 family ligand (Pleiotropic) (protein)
chain: MAFTEHSPLTPHRRDLCSRSIWLARKIRSDLTALTESYVKHQGLNKNINLDSADGMPVASTDQWSELTEAERLQENLQAYRTFHVLLARLLEDQQVHFTPTEGDFHQAIHTLLLQVAAFAYQIEELMILLEYKIPRNEADGMPINVGDGGLFEKKLWGLKVLQELSQWTVRSIHDLRFISSHQTGIPARGSHYIANNKKM
modifications: homo sapiens
For B9, the STATS (STATS) is given as 1,3.
